According to patent US20230202997A1, “CHROMANOL, QUINONE OR HYDROQUINONE COMPOUNDS FOR TREATMENT OF SEPSIS” (Sulfateq B.V., priority 2020, published 2023):

Legend:
[1] = tested on: IL-6 mRNA expression; assay: Endothelial inflammatory activation after endotoxin, IL-6 mRNA (Example 5); format: cell-based, Human; details: HUVEC; 10 μM for 30 min
Protocol: (§1) Human Umbilical Cord Endothelial Cells (HUVEC, Lonza CC-2519) were maintained on 1% gelatin-coated culture flasks in RPMI1640 medium containing 20% fetal bovine serum, 2 mM Glutamine (Sigma-Aldrich), 1% Penicillin-Streptomycin solution (Sigma-Aldrich) and 50 μg/ml Bovine Pituitary Extract (Invitrogen). HUVEC were passaged by trypsinization when the cultures reach a confluency of 70%. For all experiments, HUVEC were seeded at 0.6·10^5 cells/cm^2 and allowed to adhere for 24 hours.
(§2) HUVEC cells were lysed in triZOL reagens (Invitrogen) and total RNA isolated according to manufacturers' instruction. 1 μg total RNA per sample was reverse transcribed using the FirstAid Reverse Transcription Kit (ThermoFisher). Copy-DNA equivalents of 5 ng total RNA were amplified on a ViiA7 Real-time PCR system (ThermoFisher, Waltham, Mass.) using iTaq Universal SYBR Green Supermix (Bio-Rad, Hercules, Calif.) and primers specific for tumor necrosis factor alpha (TNFα; sense 5′-[…]-3′, antisense 5′-[…]-3′), interleukin 1 beta (IL-1β; sense 5′-[…]-3′, antisense 5′-[…]-3′), interleukin-6 (IL-6; sense 5′-[…]-3′, antisense 5′-[…]-3′) and beta actin (ACTB; sense 5′-[…]-3′, antisense 5′-[…]-3′) as loading control. Amplification was performed for 40 cycles of 95° C. for 30 s, 60° C. for 1 min. Relative mRNA expression was calculated according to the δδCt-method.

[2] = tested on: TNFα mRNA expression; assay: Inhibition of LPS-induced TNFα mRNA expression in HUVEC; format: cell-based, Human; details: 10 μM for 30 min, then LPS 24 hours
Protocol: as §1
(§3) HUVEC and NRK52E cells were pre-incubated with SUL compounds (10 μM) for 30 min and subsequently exposed to LPS for 24 hours under standard culture conditions. Cells were lysed in triZOL reagens (Invitrogen) and total RNA isolated according to manufacturers' instruction. 1 μg total RNA per sample was reverse transcribed using the FirstAid Reverse Transcription Kit (ThermoFisher). Copy-DNA equivalents of 5 ng total RNA were amplified on a ViiA7 Real-time PCR system (ThermoFisher, Waltham, Mass.) using iTaq Universal SYBR Green Supermix (Bio-Rad, Hercules, Calif.) and primers specific for tumor necrosis factor alpha, interleukin 1 beta, interleukin-6 and beta actin as loading control. Amplification was performed for 40 cycles of 95° C. for 30 s, 60° C. for 1 min. Relative mRNA expression was calculated as 2^−(Cq^gene^−Cq^reference^) and normalized to unstimulated control cells (100% inhibition) and vehicle-treated and LPS exposed cells (0% inhibition). The following primers were used: […]

[3] = tested on: IL-1β mRNA expression; assay: Endothelial inflammatory activation after endotoxin, IL-1β mRNA (Example 5); format: cell-based, Human; details: HUVEC; 10 μM for 30 min
Protocol: as §1, §2

[4] = tested on: IL-1β mRNA expression; assay: Inhibition of LPS-induced IL-1β mRNA expression in HUVEC; format: cell-based, Human; details: 10 μM for 30 min, then LPS 24 hours
Protocol: as §1, §3

[5] = tested on: HUVEC; assay: Cell viability after hypothermia-rewarming stress (Neutral Red); format: cell-based, Human; details: 10 μM for 1 hour, 4° C. for 24 hours followed by 37° C. for 3 hours
Protocol: as §1
HUVEC were pre-treated with BN-80933, SUL-138 or SUL-150 (all 10 μM) for 1 hour in a humidified incubator at 37° C. Following pre-treatment, HUVEC were placed in a cold room (2-8° C.) for 24 hours and subsequently placed back at 37° C. for a 3 hour rewarming period. After 1 hour of rewarming, cell culture medium was replaced by prewarmed and filtered 0.4 mg/mL Neutral Red (#N463 8, Sigma-Aldrich) in culture medium. After the remaining 2 hour rewarming period, HUVEC were washed with PBS and NRU was solubilized in 100 μL resorption solution (50% ethanol, 1% ascetic acid in dH2O). The absorbance was measured at a wavelength of 550 nm on a BioTek ELx808 plate reader. The recorded OD550 nm values were normalized to control samples that were maintained at 37° C. at all times, which were assumed to be 100% viable.

[6] = tested on: mitochondrial oxidative stress in HUVEC; assay: LPS-induced mitochondrial superoxide in HUVEC (MitoSox); format: cell-based, Human; details: 10 μM for 30 min, LPS 100 ng/ml 24 hours
Protocol: as §1
(§4) The production of cellular and mitochondrial oxidative stress was measured using fluorescent probes for cellular and mitochondrial superoxide, i.e. dihydroethidium (DHE) and MitoSox (ThermoFisher), respectively. HUVEC were incubated with BN-80933, SUL-138 or SUL-150 (all 10 μM) for 30 min. Next, HUVEC were exposed to LPS (100 ng/ml) for an additional 24 hours. In the final hour of incubation, 2.5 μM of DHE or MitoSox was applied to each sample. HUVEC were washed in PBS and fixed in 4% paraformaldehyde at room temperature for 15 min. Nuclear staining was performed by 5 μM […] (DAPI) and fluorescence intensity of the samples was recorded in a CLARIOStar Plus plate reader (BMG Labtech) equipped with the appropriate filter sets. Fluorescence recordings for DHE and MitoSox were corrected for DAPI fluorescence. All experiments were performed in quadruplicate.

[7] = tested on: NO production in HUVEC; assay: Endothelial NO production (nitrate in conditioned medium), basal and after LPS; format: cell-based, Human; details: 10 μM pre-treatment, LPS 100 ng/ml for 24 hours
Protocol: as §1
Cellular production of NO was approximated by measuring nitrate concentrations in culture media using the Measure-IT™ High-Sensitivity Nitrite Assay Kit (#M36051, ThermoFisher) according to manufacturer's instructions. […] Therefore, nitrate concentrations in conditioned media are a good approximate to assess cellular NO production. 50 μl conditioned medium derived from a single 96-wells plate well was used per assay and normalized against protein concentration. All experiments were performed in quadruplicate.
Endotoxins suppress endothelial NO production by limiting the activity of eNOS. HUVEC were pre-treated with vehicle (DMSO), BN-80933, SUL-138, or SUL-150 or (all 10 μM) prior to endotoxin (LPS 100 ng/ml) exposure for 24 hours. The nitrate levels in the conditioned medium from endothelial cells exposed to LPS averaged at 160 pmol/mg protein (˜33% reduction versus non LPS exposed HUVEC, p=0.002), which was lower than basal control levels. BN-80933 further suppressed the nitrate levels in the conditioned medium (FIG. 7A) to an average of 90 pmol/mg protein (p=0.008).

[8] = tested on: TNFα mRNA expression; assay: Endothelial inflammatory activation after endotoxin, TNFα mRNA (Example 5); format: cell-based, Human; details: HUVEC; 10 μM for 30 min
Protocol: as §1, §2

[9] = tested on: NO production in RAW264.7 macrophages; assay: Macrophage NO production (nitrate in conditioned medium), basal and after LPS; format: cell-based, Mouse
Protocol: Mouse macrophage RAW264.7 cells (ATCC #TIB-71) were maintained in DMEM medium containing 10% fetal bovine serum, and 1% Penicillin-Streptomycin solution (Sigma-Aldrich). […] For all experiments, RAW264.7 cells were seeded at 0.5·10^5 cells/cm^2 and allowed to adhere for 24 hours. Cellular production of NO was approximated by measuring nitrate concentrations in culture media using the Measure-IT™ High-Sensitivity Nitrite Assay Kit (#M36051, ThermoFisher) according to manufacturer's instructions. […] Therefore, nitrate concentrations in conditioned media are a good approximate to assess cellular NO production. 50 μl conditioned medium derived from a single 96-wells plate well was used per assay and normalized against protein concentration. All experiments were performed in quadruplicate. LPS induces macrophage NO production by activating iNOS. RAW264.7 macrophages were pre-treated with vehicle (DMSO), BN-80933, SUL-138, or SUL-150 or (all 10 μM) prior to endotoxin (LPS 100 ng/ml) exposure for 24 hours. The nitrate levels in the conditioned medium from LPS exposed RAW264.7 macrophages averaged at 83 pmol/mg protein (˜16-fold increase versus non-exposed RAW264.7 cells, p=0.001).

[10] = tested on: cytoplasmic oxidative stress in HUVEC; assay: LPS-induced cellular superoxide in HUVEC (DHE); format: cell-based, Human; details: 10 μM for 30 min, LPS 100 ng/ml 24 hours
Protocol: as §1, §4

[11] = tested on: IL-6 mRNA expression; assay: Inhibition of LPS-induced IL-6 mRNA expression in HUVEC; format: cell-based, Human; details: 10 μM for 30 min, then LPS 24 hours
Protocol: as §1, §3

[12] = tested on: TNFα mRNA expression; assay: Inhibition of LPS-induced TNFα mRNA expression in NRK52E; format: cell-based, Rat; details: 10 μM for 30 min, then LPS 24 hours
Protocol: (§5) Rat kidney epithelial cells (ATCC #CRL-1571) were maintained in DMEM medium containing 10% fetal bovine serum, and 1% Penicillin-Streptomycin solution (Sigma-Aldrich). NRK52E cells were passaged by trypsinization when the cultures reached a confluency of 70%. For all experiments, NRK52E cells were seeded at 0.6·10^5 cells/cm^2 and allowed to adhere for 24 hours.
as §3

[13] = tested on: sepsis induction in Drosophila melanogaster (Staphylococcus aureus); assay: S. aureus sepsis in flies, survival and negative geotaxis; format: in vivo; details: flies with S. aureus sepsis
Protocol: W1118 flies were bred and housed at 25° C. with a 12 h:12 h light/dark-cycle. Flies were kept in vials containing approximately 5 mL of standard yeast-cornmeal medium. Flies kept as a stock were flipped to fresh vials weekly. The used yeast-cornmeal medium was prepared to the instructions of Stocker and Gallant's ‘Drosophila Methods and Protocols’ and consisted of 100 grams yeast, 75 grams glucose, 8 grams agar, 55 grams cornmeal, and 10 grams wheat flour per litre of water. After boiling, phosphoric acid and propionic acid were added to the mixture to prevent fungal growth.
Staphylococcus aureus (S. aureus) was aerobically cultured overnight in 2.5% tryptic soy broth (TSB) at 37° C. with continuous rotation (200 rounds per minute), from an S. aureus glycerol stock kept at −80° C. For each experiment, a fresh culture was prepared one day prior to the experiment. For bacterial infection, optical density (OD) was measured the following day at 600 nm. Clean TSB was used as OD=0.00 and the bacterial culture was diluted to OD=2.20 with PBS. Next, 1.0 mL of the bacterial culture (OD=2.20) was centrifuged at 14,000 g for 1 minute, the supernatant was discarded, and the bacterial pellet resuspended in 1.0 mL PBS. Serial dilutions (5× and 25× diluted in PBS with optical densities of approximately 1.05 and 0.25, respectively) were used in the appropriate experiments. […]

[14] = tested on: IL-6 mRNA expression; assay: Inhibition of LPS-induced IL-6 mRNA expression in NRK52E; format: cell-based, Rat; details: 10 μM for 30 min, then LPS 24 hours
Protocol: as §5, §3

Row | Structure (SMILES) | LPS-induced mRNA expression of IL-6 [1] | inhibition of LPS-induced mRNA expression of TNFα [2] [%] | LPS-induced mRNA expression of IL-1β [3] | inhibition of LPS-induced mRNA expression of IL-1β [4] [%] | reduction in cell viability versus normothermic control cells [5] [%] | LPS-induced mitochondrial oxidative stress (MitoSox) [6] | nitrate levels in the conditioned medium after LPS [7] | LPS-induced mRNA expression of TNFα [8] | LPS-induced increase in extracellular nitrate level ([9]; 10 μM pre-treatment, LPS 100 ng/ml for 24 hours) | basal production of extracellular nitrate ([9]; no LPS, 10 μM) | LPS-induced cytoplasmic oxidative stress (DHE) [10] | inhibition of LPS-induced mRNA expression of IL-6 [11] [%] | inhibition of LPS-induced mRNA expression of TNFα [12] [%] | Geotaxis ([13]; 3 mM SUL-151, 24 hr and 48 hr after induction) | Survival after 24 hr ([13]; 3 mM SUL-151 intrathoracic injection with the bacteria) [%] | inhibition of LPS-induced mRNA expression of IL-6 [14] [%]
1 | Cc1c(C)c2c(c(C)c1O)CC[C@](C)(C(=O)N1CCNCC1)O2 [SUL-150, (R)-(6-hydroxy-2,5,7,8-tetramethylchroman-2-yl)(piperazin-1-yl)methanone] | precluded the LPS-induced increase in IL-1β and IL-6 | 79.8 ± 4.1 | precluded the LPS-induced increase in IL-1β and IL-6 | 78.9 ± 6.0 | ~15 | precluded the LPS-induced increase in mitochondrial oxidative stress | mitigated the LPS-induced reduction in nitrate levels and their levels did not change from basal nitrate level | precludes the induction of mRNA expression of the pro-inflammatory cytokine TNFα | Neither SUL-138 nor SUL-150 strongly suppressed the LPS-induced increase in nitrate production | Neither BN-80933, SUL-138, nor SUL-150 affected the basal production of extracellular nitrate | mitigates the induction of cytoplasmic oxidative stress | 69.3 ± 3.9 | – | – | – | –
2 | Cc1c(C)c2c(c(C)c1O)CC[C@@](C)(C(=O)N1CCNCC1)O2 [SUL-151, (S)-(6-hydroxy-2,5,7,8-tetramethylchroman-2-yl)(piperazin-1-yl)methanone] | – | 72.5 ± 3.2 | – | 76.7 ± 1.2 | – | – | – | – | – | – | – | 65.4 ± 4.6 | 72.1 ± 14.5 | improved both at 24 hr and 48 hr | 80 | 83.1 ± 8.3
